Earlier results, collected in patent publication US9763983B2, “Natural killer cells from placenta” (ANTHROGENESIS CORPORATION, priority 2013, dated 2017).

Settings: disclosed in US 2005/0096351 A1; for hygroscopicity: polymorphic form

hygroscopicity	SMILES	stability / interconversion of polymorphic form
weakly or not hygroscopic	Nc1cccc2c1CN(C1CCC(=O)NC1=O)C2=O (stereo not shown) [Form A, 3-(4-amino-1-oxo-1,3 dihydro-isoindol-2-yl)-piperidene-2,6-dione]	most thermodynamically stable anhydrous polymorph
–	Nc1cccc2c1CN(C1CCC(=O)NC1=O)C2=O (stereo not shown) [Form B, 3-(4-amino-1-oxo-1,3 dihydro-isoindol-2-yl)-piperidene-2,6-dione]	converts to Form E in aqueous solvent systems
not hygroscopic below about 85% RH	Nc1cccc2c1CN(C1CCC(=O)NC1=O)C2=O (stereo not shown) [Form C, 3-(4-amino-1-oxo-1,3 dihydro-isoindol-2-yl)-piperidene-2,6-dione]	can convert to Form B at higher relative humidities
either weakly or not hygroscopic	Nc1cccc2c1CN(C1CCC(=O)NC1=O)C2=O (stereo not shown) [Form D, 3-(4-amino-1-oxo-1,3 dihydro-isoindol-2-yl)-piperidene-2,6-dione]	convert to Form B when stressed at higher relative humidities
